The values that follow come from patent US20230302140A1, “CONJUGATE OF A SINGLE DOMAIN ANTIBODY, A SAPONIN AND AN EFFECTOR MOLECULE, PHARMACEUTICAL COMPOSITION COMPRISING THE SAME, THERAPEUTIC USE OF SAID PHARMACEUTICAL COMPOSITION” (SAPREME TECHNOLOGIES B.V., priority 2020, published 2023).

One assay concerns endosomal acidification. As to the kind of experiment: Cell viability assay with endosomal acidification inhibitors. The assay is classed as cell-based. The following applies: targeted 2-component system; chloroquine or bafilomycin A1. The method, then:
(§1) Cells were seeded in a 96 well plate at 5.000-1 0.000 c/w in 100 µL/well and incubated overnight at 37° C. […] The media was removed from the cell culture plate and replaced by 180 µL culture media, followed by the addition of 20 µL treatment-mix/well. […] In the case that endosomal acidification inhibitors (chloroquine (Sigma Aldrich) or bafilomycin A1 (Enzo Life Sciences)) were used, the cell culture media in step 1 of treatment was replaced by 180 µL media containing 1 µM chloroquine or 0.2 µM bafilomycin A1. The plate was incubated for 1 hour at 37° C., before the 10x treatment-mix samples were added. The remaining incubation and treatment steps were performed according to standard procedures known in the field.

The subject of a further assay is CaSki cells. As to the kind of experiment: Cell killing (MTS cell viability) assay. The class given is cell-based, human. The procedure:
as §1
(§2) After treatment the cells were incubated for 72 hr at 37° C. before the cell viability was determined by a MTS-assay, performed according to the manufacturer’s instruction (CellTiter 96® AQueous One Solution Cell Proliferation Assay, Promega). Briefly, the MTS solution was diluted 20x in DMEM without phenol red (PAN-Biotech GmbH) supplemented with 10% FBS (PAN-Biotech GmbH). The cells were washed once with 200 µL PBS per well, after which 100 µL diluted MTS solution was added per well. The plate was incubated for approximately 20-30 minutes at 37° C. Subsequently, the optical density at 492 nm was measured on a Thermo Scientific Multiskan FC plate reader (Thermo Scientific). For quantification the background signal of ‘medium only’ wells was subtracted from all other wells, before the ratio of […].

Another assay deals with SK-BR-3 cells. As to the kind of experiment: Cell killing (MTS cell viability) assay. The class given is cell-based, human. The method, then: (§3) After treatment the cells were incubated for 72 hr at 37° C. before the cell viability was determined by a MTS-assay, performed according to the manufacturer’s instruction (CellTiter 96® AQueous One Solution Cell Proliferation Assay, Promega). Briefly, the MTS solution was diluted 20× in DMEM without phenol red (PAN-Biotech GmbH) supplemented with 10% FBS. The cells were washed once with 200 µL/PBS well, after which 100 µL diluted MTS solution was added/well. The plate was incubated for approximately 20-30 minutes at 37° C. Subsequently, the OD at 492 nm was measured on a Thermo Scientific Multiskan FC plate reader (Thermo Scientific). For quantification the background signal of ‘medium only’ wells was subtracted from all other wells, before the cell viability percentage of treated/untreated cells was calculated, by dividing the background corrected signal of treated wells over the background corrected signal of the untreated wells (x 100).
as §1, §2

For the next assay, the system named is MDA-MB-468 cells. The assay is described as follows: Cell killing (MTS cell viability) assay. The class given is cell-based, human. The procedure:
as §3, §1, §2

In another assay the test system is A2058 cells. As to the kind of experiment: Cell killing (MTS cell viability) assay. The assay is classed as cell-based, human. The procedure: as §3, §1, §2
The next assay has as its system HeLa cells. The assay is described as follows: Cell killing (MTS cell viability) assay. The class given is cell-based, human. The following applies: +1500 nM SO1861 (unconjugated). The procedure:
as §1, §2

A further assay has as its system JIMT-1 cells. As to the kind of experiment: Cell killing (MTS cell viability) assay. The assay is classed as cell-based, human. Conditions: +1500 nM SO1861 (unconjugated). The method, then: as §1, §2
The target of another assay is human EGFR (human) (UniProt P00533). As to the kind of experiment: cell-based or functional assay.
The mark [1] stands for this setting: +50 pM CD71VHH-dianthin (fixed).
The mark [2] stands for this setting: +50 pM VHH-EGFR-dianthin (fixed).
Where [3] appears, read: +50 pM VHH-HER2-dianthin (fixed).

With `CC(=O)O[C@H]1[C@H](O[C@@H]2OC[C@@H](O)[C@H](O)[C@H]2O)[C@@H](O)[C@H](O[C@@H]2[C@H](O)[C@@H](O[C@@H]3O[C@@H](C)[C@H](O[C@@H]4OC[C@@H](O)[C@H](O[C@@H]5O[C@H](CO)[C@@H](O)[C@H](O)[C@H]5O)[C@H]4O)[C@@H](O)[C@H]3O)[C@H](OC(=O)[C@]34CCC(C)(C)C[C@H]3C3=CC[C@@H]5[C@@]6(C)CC[C@H](O[C@@H]7O[C@H](C(=O)O)[C@@H](O)[C@H](O[C@@H]8OC[C@@H](O)[C@H](O)[C@H]8O)[C@H]7O[C@@H]7O[C@H](CO)[C@H](O)[C@H](O)[C@H]7O)[C@@](C)(C=O)[C@@H]6CC[C@@]5(C)[C@]3(C)C[C@H]4O)O[C@@H]2C)O[C@@H]1C` [SO1861], the “SO1861 function with endosomal acidification inhibitors” value in the assay on endosomal acidification is given as “function is reduced when acidification of endosomes is blocked”. Besides, the IC50 is 700 nM in the assay with CaSki cells (+10 pM cetuximab-saporin (fixed), calculated on concentration SO1861); not below 1000 nM with CaSki cells (+50 pM trastuzumab-saporin (fixed), Ex.9/Table A6: calculated on concentration SO1861); 800 nM with SK-BR-3 cells (+1.5 pM EGF-dianthin (fixed), Ex.9/Table A6: calculated on concentration SO1861); 650 nM with SK-BR-3 cells (+10 pM EGF-dianthin (fixed), Table A6: calculated on concentration SO1861); 200 nM with SK-BR-3 cells (setting [1]); 700 nM in the assay on SK-BR-3 cells (setting [2]). In addition, the IC50 in the assay with SK-BR-3 cells (setting [3]) worked out at 200 nM; in the assay with MDA-MB-468 cells (setting [1]) it was 200 nM; with MDA-MB-468 cells (setting [2]), 300 nM; in the assay with A2058 cells (+50 pM VHH-CD71-dianthin (fixed)), 200 nM. Moreover, the figures for the IC50 cell killing entry in the assay with MDA-MB-468 cells (setting [3]) and in the assay on A2058 cells (setting [2]) were “no enhanced activity compared to SO1861alone” and “no activity”, respectively.

Turning to Saporin, the 50% inhibitory concentration (IC50) in the assay with HeLa cells turned out to be 0.03 nM; with JIMT-1 cells, 0.03 nM; with CaSki cells (+1500 nM SO1861 (unconjugated)) it was 0.015 nM.

“cetuximab-saporin (monoclonal antibody recognizing and binding EGFR, conjugated to the protein toxin, saporin)”: in the assay with human EGFR (human), the cell killing (MTS) on MDA-MB-468 cells (EGFR++), cetuximab-saporin alone, IC50 was 300 pM.

Broadly, the IC50 is the concentration that inhibits the measured activity by half.
